From the supplement of paper PMC10307832

Legend:
Test in all cases: relative viability (nuclei count vs DMSO), 5 days (fraction); higher = more cells survive
IPA-3 + Navitoclax = compound: C1=CC=C2C(=C1)C=CC(=C2SSC3=C(C=CC4=CC=CC=C43)O)O [IPA-3] + CC1(C)CCC(c2ccc(Cl)cc2)=C(CN2CCN(c3ccc(C(=O)NS(=O)(=O)c4ccc(N[C@H](CCN5CCOCC5)CSc5ccccc5)c(S(=O)(=O)C(F)(F)F)c4)cc3)CC2)C1 [Navitoclax] (partner 0.5 µM)
How it was run: (§1)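 Each reported value is a median over duplicate plates. It expresses relative viability: treated-well nuclei count divided by vehicle-well nuclei count. Lung cancer cell lines in 1536-well plates were dosed by pin tool a day after seeding, alone with one drug or with a fixed anchor-drug dose plus five library-drug doses (not always all listed) in √10 steps, and nuclei were counted after 5 days.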

RAF265 + Navitoclax = compound: Cn1c(Nc2ccc(C(F)(F)F)cc2)nc2cc(Oc3ccnc(-c4ncc(C(F)(F)F)[nH]4)c3)ccc21 [RAF265] + CC1(C)CCC(c2ccc(Cl)cc2)=C(CN2CCN(c3ccc(C(=O)NS(=O)(=O)c4ccc(N[C@H](CCN5CCOCC5)CSc5ccccc5)c(S(=O)(=O)C(F)(F)F)c4)cc3)CC2)C1 [Navitoclax] (partner 0.5 µM)
How it was run: as §1

RAF265 + Tozasertib = compound: Cn1c(Nc2ccc(C(F)(F)F)cc2)nc2cc(Oc3ccnc(-c4ncc(C(F)(F)F)[nH]4)c3)ccc21 [RAF265] + Cc1cc(Nc2cc(N3CCN(C)CC3)nc(Sc3ccc(NC(=O)C4CC4)cc3)n2)n[nH]1 [Tozasertib] (partner 0.1 µM)
How it was run: as §1

RAF265 + Alpelisib = compound: Cn1c(Nc2ccc(C(F)(F)F)cc2)nc2cc(Oc3ccnc(-c4ncc(C(F)(F)F)[nH]4)c3)ccc21 [RAF265] + Cc1nc(NC(=O)N2CCC[C@H]2C(N)=O)sc1-c1ccnc(C(C)(C)C(F)(F)F)c1 [Alpelisib] (partner 2 µM)
How it was run: as §1

Cell Line	relative viability (IPA-3 + Navitoclax; first compound 0.2 µM)	relative viability (IPA-3 + Navitoclax; first compound 0.6325 µM)	relative viability (IPA-3 + Navitoclax; first compound 2 µM)	relative viability (IPA-3 + Navitoclax; first compound 6.325 µM)	relative viability (IPA-3 + Navitoclax; first compound 20 µM)	relative viability (RAF265 + Navitoclax; first compound 0.01 µM)	relative viability (RAF265 + Navitoclax; first compound 0.03162 µM)	relative viability (RAF265 + Navitoclax; first compound 0.1 µM)	relative viability (RAF265 + Navitoclax; first compound 0.3162 µM)	relative viability (RAF265 + Navitoclax; first compound 1 µM)	relative viability (RAF265 + Tozasertib; first compound 0.01 µM)	relative viability (RAF265 + Tozasertib; first compound 0.03162 µM)	relative viability (RAF265 + Tozasertib; first compound 0.1 µM)	relative viability (RAF265 + Tozasertib; first compound 0.3162 µM)	relative viability (RAF265 + Tozasertib; first compound 1 µM)	relative viability (RAF265 + Alpelisib; first compound 0.01 µM)	relative viability (RAF265 + Alpelisib; first compound 0.03162 µM)	relative viability (RAF265 + Alpelisib; first compound 0.1 µM)	relative viability (RAF265 + Alpelisib; first compound 0.3162 µM)	relative viability (RAF265 + Alpelisib; first compound 1 µM)
NCI-H2126	0.861	0.816	0.828	0.892	0.891	0.813	0.826	0.866	0.687	0.616	0.905	0.844	0.826	0.881	0.607	0.75	0.751	0.731	0.663	0.519
NCI-H2170	0.702	0.614	0.552	0.507	0.504	0.586	0.434	0.462	0.3	0.383	0.734	0.651	0.752	0.587	0.538	0.773	0.643	0.671	0.524	0.641
NCI-H2228	0.917	0.89	0.788	0.886	1.02	0.741	0.971	0.903	0.945	0.726	0.329	0.235	0.334	0.211	0.131	0.791	0.718	0.436	0.299	0.29
NCI-H2347	0.962	0.792	0.633	0.88	0.988	1.03	0.786	0.864	0.456	0.467	0.653	0.507	0.809	0.436	0.325	1.18	0.97	0.933	0.612	0.488
NCI-H2405	0.993	0.989	0.929	0.892	0.984	0.984	0.86	0.973	0.909	0.335	0.798	0.736	0.876	0.853	0.458	0.808	0.858	0.863	0.712	0.297
NCI-H3122	0.994	0.998	1.01	1.12	1.02	1	1.08	1.01	1.04	0.967	0.362	0.492	0.424	–	0.283	0.909	0.868	0.783	0.559	0.417
PC-3 [JPC-3]	0.813	0.691	0.823	0.803	0.842	0.735	0.754	0.893	0.304	0.556	0.889	0.868	0.985	–	0.518	1	0.993	1.08	0.331	0.644
PC-14	1.09	1.03	0.994	0.988	0.974	0.955	1.03	1.03	0.985	0.854	0.629	0.555	0.655	–	0.542	0.964	0.907	0.854	0.35	0.579
RERF-LC-KJ	1.53	0.879	1.1	0.877	1.06	1.08	0.95	0.851	0.747	0.841	0.54	0.482	0.507	0.39	0.386	0.791	0.573	0.851	0.625	0.584
SK-LU-1	1.39	–	0.786	0.878	0.971	1.41	0.682	0.718	0.744	0.273	0.333	0.273	0.296	0.278	0.204	0.972	0.494	0.493	0.506	0.363
SK-MES-1	1.26	1.12	1.3	–	1.04	1.11	1.01	1.01	0.361	0.209	0.853	0.603	0.399	0.348	0.275	0.942	0.807	0.337	0.242	0.183
SW 1573	0.99	0.67	1.21	1.09	1.13	1.23	0.984	1.04	0.89	0.389	0.168	0.24	0.171	0.183	0.139	1	0.638	0.645	0.574	0.343
